{
  "source": "patent US9493466B2",
  "about": "“Treatment of cancer with TOR kinase inhibitors” (Signal Pharmaceuticals, LLC, priority 2011, dated 2016)",
  "key": {"[1]": {"tested_on": "NCI-H441 tumors", "test": "NCI-H441 NSCLC in vivo tumor growth model", "design": "species or system SCID mice", "conditions": "1 to 10 mg/kg oral BID, up to 26 days; FIG. 9", "method": "NCI-H441 NSCLC In Vivo Tumor Growth Model. A xenograft study was conducted with NCI-H441 tumor-bearing mice. SCID mice were inoculated subcutaneously with NCI-H441 cells in the flank region above the right hind leg. Following inoculation of the animals, the tumors were allowed to grow to about 100 mm^3 prior to randomization. On Day 14 following tumor cell inoculation, the mice bearing NCI-H441 tumors ranging between 87 and 136 mm^3 were pooled together and randomized into various treatment groups. Compound 1 was formulated in 0.5% CMC and 0.25% Tween 80 in water (as a suspension). The animals were orally administered vehicle (CMC-Tween) or Compound 1 twice daily (BID) for up to 26 days. Doses of Compound 1 ranged between 1 and 10 mg/kg. The positive control rapamycin (4 mg/kg, Q3D) was administered via the intraperitoneal (IP) route. Rapamycin was prepared as solution in 2% ethanol, 45% polyethyleneglycol 400, and 53% saline. Tumors were measured twice a week using calipers and tumor volumes were calculated using the formula of W^2×L/2. Statistical analysis was performed using a one-way analysis of variance (ANOVA) followed by Dunnett's post-hoc comparison with the vehicle-treated control group."}, "[2]": {"tested_on": "SNU-475", "test": "Growth inhibition assay for HCC lines", "format": "cell-based", "conditions": "SNU-475, 96 hours, RPMI 1640 + 10% FBS", "method": "(§1) Growth Inhibition Assay for HCC and NHL Lines. The seeding density for each cell line was optimized to ensure assay linearity in 384-well plates.\n(§2) Compound 1 was dissolved in dimethyl sulfoxide (DMSO) to prepare a 10 mM stock solution. A serial titration was performed to produce a working concentration range of […] to 10 mM. Aliquots to produce final concentrations of 1.5 nM to 10 μM were spotted via an acoustic dispenser (EDC ATS-100) into an empty 384-well plate. Compound 1 was spotted in a 10-point serial dilution fashion (3-fold dilution) in duplicate within the plate. The DMSO concentration was kept constant for a final assay concentration of 0.1% DMSO. Plates were replicated for use with different cell lines and testing periods. After compound plate replication, all plates were sealed (Agilent ThermoLoc) and stored at −20° C. for up to 1 month. […] When ready for testing, plates were removed from the freezer, thawed, and unsealed just prior to the addition of the test cells. Prior to testing, cells were grown and expanded in culture flasks to provide sufficient amounts of starting material. Cells were then diluted to the appropriate densities and added directly to the compound-spotted 384-well plates. Cells were allowed to grow for 96 hours at 37° C./5% CO2. At the time when compound was added (t0), initial cell number was assessed via a viability assay (Cell Titer-Glo) by quantifying the level of luminescence generated by ATP present in viable cells. After 96 hours, cell viability of compound-treated cells was assessed via Cell Titer-Glo and luminescence measurement. Cell lines were assayed for growth inhibition by Compound 1 in at least 3 independent tests. A control cell line (the lung tumor cell line, A549) was included in each of the assays. The compound response against this control cell line was monitored closely to enable comparison of the data generated through the assay period. All data were normalized and presented as a percentage of the DMSO-treated cells. Results were then expressed as a GI50 value. The GI50 value corrects for the cell count at time zero. In addition, the IC50 value of Compound 1 for each cell line was calculated."}, "[3]": {"tested_on": "SNU-387", "test": "Growth inhibition assay for HCC lines", "format": "cell-based", "conditions": "SNU-387, 96 hours, RPMI 1640 + 10% FBS", "method": "as §1, §2"}, "[4]": {"tested_on": "PLC-PRF-5", "test": "Growth inhibition assay for HCC lines", "format": "cell-based", "conditions": "PLC-PRF-5, 96 hours, DMEM + 10% FBS", "method": "as §1, §2"}, "[5]": {"tested_on": "SNU-449", "test": "Growth inhibition assay for HCC lines", "format": "cell-based", "conditions": "SNU-449, 96 hours, RPMI 1640 + 10% FBS", "method": "as §1, §2"}, "[6]": {"tested_on": "HepG2", "test": "Growth inhibition assay for HCC lines", "format": "cell-based", "conditions": "HepG2, 96 hours, DMEM + 10% FBS", "method": "as §1, §2"}, "[7]": {"tested_on": "HuH-7", "test": "Growth inhibition assay for HCC lines", "format": "cell-based", "conditions": "HuH-7, 96 hours, DMEM + 10% FBS", "method": "as §1, §2"}, "[8]": {"tested_on": "SK-HEP-1", "test": "Growth inhibition assay for HCC lines", "format": "cell-based", "conditions": "SK-HEP-1, 96 hours, DMEM + 10% FBS", "method": "as §1, §2"}, "[9]": {"tested_on": "SNU-398", "test": "Growth inhibition assay for HCC lines", "format": "cell-based", "conditions": "SNU-398, 96 hours, RPMI 1640 + 10% FBS", "method": "as §1, §2"}, "[10]": {"tested_on": "Hep3B", "test": "Growth inhibition assay for HCC lines", "format": "cell-based", "conditions": "96 hours, DMEM + 10% FBS", "method": "as §1, §2"}, "[11]": {"tested_on": "SNU-182", "test": "Growth inhibition assay for HCC lines", "format": "cell-based", "conditions": "SNU-182, 96 hours, RPMI 1640 + 10% FBS", "method": "as §1, §2"}, "[12]": {"tested_on": "SNU-423", "test": "Growth inhibition assay for HCC lines", "format": "cell-based", "conditions": "SNU-423, 96 hours, RPMI 1640 + 10% FBS", "method": "as §1, §2"}},
  "data": [
    {"molecule": "CO[C@H]1CC[C@H](N2C(=O)CNc3ncc(-c4ccc(C(C)(C)O)nc4)nc32)CC1", "note": "[Compound 1, 7-(6-(2-hydroxypropan-2-yl)pyridin-3-yl)-1-((1r,4r)-4-methoxycyclohexyl)-3,4-dihydropyrazino-[2,3-b]pyrazin-2(1H)-one]", "values": [
      {"measurement": "tumor growth", "setting": "[1]", "value": "significantly inhibited"},
      {"measurement": "GI50", "setting": "[2]", "value": "460 ± 90", "unit": "nM"},
      {"measurement": "IC50", "setting": "[2]", "value": "690 ± 140", "unit": "nM"},
      {"measurement": "GI50", "setting": "[3]", "value": "1260 ± 470", "unit": "nM"},
      {"measurement": "IC50", "setting": "[3]", "value": "2470 ± 930", "unit": "nM"},
      {"measurement": "GI50", "setting": "[4]", "value": "310 ± 70", "unit": "nM"},
      {"measurement": "IC50", "setting": "[4]", "value": "430 ± 70", "unit": "nM"},
      {"measurement": "GI50", "setting": "[5]", "value": "370 ± 70", "unit": "nM"},
      {"measurement": "IC50", "setting": "[5]", "value": "480 ± 110", "unit": "nM"},
      {"measurement": "GI50", "setting": "[6]", "value": "240 ± 60", "unit": "nM"},
      {"measurement": "IC50", "setting": "[6]", "value": "320 ± 130", "unit": "nM"},
      {"measurement": "GI50", "setting": "[7]", "value": "70 ± 30", "unit": "nM"},
      {"measurement": "IC50", "setting": "[7]", "value": "100 ± 40", "unit": "nM"},
      {"measurement": "GI50", "setting": "[8]", "value": "270 ± 40", "unit": "nM"},
      {"measurement": "IC50", "setting": "[8]", "value": "330 ± 70", "unit": "nM"},
      {"measurement": "GI50", "setting": "[9]", "value": "280 ± 60", "unit": "nM"},
      {"measurement": "IC50", "setting": "[9]", "value": "290 ± 50", "unit": "nM"},
      {"measurement": "GI50", "setting": "[10]", "value": "260 ± 70", "unit": "nM"},
      {"measurement": "IC50", "setting": "[10]", "value": "340 ± 110", "unit": "nM"},
      {"measurement": "GI50", "setting": "[11]", "value": "80 ± 30", "unit": "nM"},
      {"measurement": "IC50", "setting": "[11]", "value": "260 ± 100", "unit": "nM"},
      {"measurement": "GI50", "setting": "[12]", "value": "300 ± 50", "unit": "nM"},
      {"measurement": "IC50", "setting": "[12]", "value": "480 ± 60", "unit": "nM"}
    ]}
  ]
}
